Measured values published in patent publication EP4273147A1, “SUBSTITUTED SPIROLACTAMS, SALTS THEREOF AND THEIR USE AS HERBICIDALLY ACTIVE SUBSTANCES” (Bayer Aktiengesellschaft, priority 2022, dated 2023).
One block for each molecule: values may come before it.

How the values were obtained:
LOLRI [1] = assay: Herbicidal pre-emergence action (Table A3); type: in vivo, Lolium rigidum; conditions: visual grading after ca. 3 weeks
Method in brief: (§1)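 Seeds of monocot and dicot weeds were sown in pots of sandy loam and covered with soil. Each pot held a double sowing: one monocotyledonous plus one dicotyledonous species.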

SETVI [2] = assay: Herbicidal pre-emergence action (Table A5); type: in vivo, Setaria viridis; conditions: visual grading after ca. 3 weeks
Method in brief: as §1

STEME [3] = assay: Herbicidal pre-emergence action (Table A6); type: in vivo, Stellaria media; conditions: visual grading after ca. 3 weeks
Method in brief: as §1

POAAN [4] = assay: Herbicidal pre-emergence action (Table A7); type: in vivo, Poa annua; conditions: visual grading after ca. 3 weeks
Method in brief: as §1

AMARE [5] = assay: Herbicidal pre-emergence action (Table A8); type: in vivo, Amaranthus retroflexus; conditions: application rate 1280 g/ha; visual grading after ca. 3 weeks vs untreated controls (100% = plants have died off, 0% = as control plants)
Method in brief: as §1

KCHSC = assay: Herbicidal pre-emergence action (Table A10); type: in vivo, Kochia scoparia; conditions: application rate 1280 g/ha; visual grading after ca. 3 weeks
Method in brief: as §1

ABUTH = assay: Herbicidal post-emergence action (Table B1); type: in vivo, Abutilon theophrasti; conditions: application rate 1280 g/ha; treated at one-leaf stage; rated visually after about 3 weeks vs untreated controls (100% = plants have died, 0% = like control plants)
Protocol: (§2) Seeds of mono- and dicotyledonous weed plants were placed in plastic pots in sandy loam soil (doubly sown with in each case one species of mono- or dicotyledonous weed plants per pot), covered with soil and cultivated in a greenhouse under controlled growth conditions. 2 to 3 weeks after sowing, the test plants were treated at the one-leaf stage. […] After the test plants had been kept in the greenhouse under optimum growth conditions for about 3 weeks, the activity of the preparations was rated visually in comparison to untreated controls. For example, 100% activity = the plants have died, 0% activity = like control plants.

ECHCG [6] = assay: Herbicidal post-emergence action (Table B3); type: in vivo, Echinochloa crus-galli; conditions: Echinochloa crus-galli, post-emergence, 504 h; application rate 1280 g/ha; rated visually after about 3 weeks; read-out: post-emergence activity against ECHCG
Method in brief: (§3)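 Visual rating against untreated plants (0% = as control, 100% = dead) made roughly 3 weeks after application. Weed species were grown in sandy loam pots under greenhouse conditions and sprayed at the one-leaf stage, 2–3 weeks post-sowing.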

POAAN [7] = assay: Herbicidal post-emergence action (Table B7); type: in vivo, Poa annua
Method in brief: as §3

SETVI [8] = assay: Herbicidal post-emergence action (Table B8); type: in vivo, Setaria viridis; conditions: application rate 1280 g/ha
Method in brief: as §3

STEME [9] = assay: Herbicidal post-emergence action (Table B9); type: in vivo, Stellaria media; conditions: application rate 1280 g/ha
Protocol: as §2

VERPE [10] = assay: Herbicidal post-emergence action (Table B10); type: in vivo, Veronica persica; conditions: application rate 1280 g/ha
Method in brief: as §3

AMARE [11] = assay: Herbicidal post-emergence action (Table B11); type: in vivo, Amaranthus retroflexus; conditions: application rate 1280 g/ha
Protocol: as §2

ECHCG [12] = assay: Herbicidal pre-emergence action (Table A2); type: in vivo, Echinochloa crus-galli; conditions: application rate 1280 g/ha; visual grading after ca. 3 weeks
Method in brief: as §1

MATIN [13] = assay: Herbicidal pre-emergence action (Table A4); type: in vivo, Matricaria inodora; conditions: application rate 1280 g/ha; visual grading after ca. 3 weeks
Method in brief: as §1

MATIN [14] = assay: Herbicidal post-emergence action (Table B6); type: in vivo, Matricaria inodora; conditions: application rate 320 g/ha; rated visually after about 3 weeks
Method in brief: as §3

ALOMY [15] = assay: Herbicidal pre-emergence action, section C (Table C2); type: in vivo, Alopecurus myosuroides; conditions: application rate 80 g/ha; visual grading after ca. 3 weeks
DIGSA = assay: Herbicidal pre-emergence action, section C (Table C5); type: in vivo, Digitaria sanguinalis; conditions: application rate 80 g/ha; visual grading after ca. 3 weeks
Source text: (§5) Seeds of mono- and dicotyledonous weed plants and crop plants were sown, in plastic or organic planting pots, in sandy loam and covered with soil. The compounds according to the invention, formulated in the form of wettable powders (WP) or as emulsifiable concentrates (EC), were applied to the surface of the covering soil as aqueous suspension or emulsion, with the addition of 0.5% of an additive, at an application rate of 600 1 of water/ha (converted). Following treatment, the pots were placed in a greenhouse and kept under optimum growth conditions for the test plants.

ECHCG [16] = assay: Herbicidal pre-emergence action, section C (Table C6); type: in vivo, Echinochloa crus-galli; conditions: application rate 80 g/ha; visual grading after ca. 3 weeks
LOLRI [17] = assay: Herbicidal pre-emergence action, section C (Table C7); type: in vivo, Lolium rigidum; conditions: application rate 320 g/ha; visual grading after ca. 3 weeks
SETVI [18] = assay: Herbicidal pre-emergence action, section C (Table C10); type: in vivo, Setaria viridis; conditions: application rate 320 g/ha; visual grading after ca. 3 weeks
VERPE [19] = assay: Herbicidal pre-emergence action, section C (Table C11); type: in vivo, Veronica persica; conditions: application rate 80 g/ha; visual grading after ca. 3 weeks
Source text: as §5

VIOTR [20] = assay: Herbicidal pre-emergence action, section C (Table C12); type: in vivo, Viola tricolor; conditions: application rate 320 g/ha; visual grading after ca. 3 weeks
ZEAMX [21] = assay: Pre-emergence effects on crop plants (Table D1); type: in vivo, Zea mays; conditions: crop plant; application rate 320 g/ha; visual grading after ca. 3 weeks
TRZAS [22] = assay: Pre-emergence effects on crop plants (Table D2); type: in vivo, Triticum aestivum; conditions: crop plant; application rate 80 g/ha; visual grading after ca. 3 weeks
GLXMA = assay: Pre-emergence effects on crop plants (Table D4); type: in vivo, Glycine max; conditions: crop plant; application rate 320 g/ha; visual grading after ca. 3 weeks
BRSNW [23] = assay: Pre-emergence effects on crop plants (Table D5); type: in vivo, Brassica napus; conditions: crop plant; application rate 80 g/ha; visual grading after ca. 3 weeks
Source text: Seeds of mono- and dicotyledonous weed plants and crop plants were sown, in plastic or organic planting pots, in sandy loam and covered with soil. The compounds according to the invention, formulated in the form of wettable powders (WP) or as emulsifiable concentrates (EC), were applied to the surface of the covering soil as aqueous suspension or emulsion, with the addition of 0.5% of an additive, at an application rate of 600 1 of water/ha (converted).
Following treatment, the pots were placed in a greenhouse and kept under optimum growth conditions for the test plants.

ALOMY [24] = assay: Herbicidal post-emergence action, section E (Table E2); type: in vivo, Alopecurus myosuroides; conditions: application rate 320 g/ha; assessed visually after ca. 3 weeks
Source text: (§4) 2 to 3 weeks after sowing, the test plants were sprayed in the single-leaf stage.

ECHCG [25] = assay: Herbicidal post-emergence action, section E (Table E5); type: in vivo, Echinochloa crus-galli; conditions: application rate 320 g/ha; assessed visually after ca. 3 weeks
Source text: as §4

VERPE [26] = assay: Herbicidal post-emergence action, section E (Table E9); type: in vivo, Veronica persica; conditions: application rate 320 g/ha; assessed visually after ca. 3 weeks
Source text: as §4

VIOTR [27] = assay: Herbicidal post-emergence action, section E (Table E10); type: in vivo, Viola tricolor; conditions: application rate 320 g/ha; assessed visually after ca. 3 weeks
Source text: as §4

ZEAMX [28] = assay: Post-emergence effects on crop plants (Table F1); type: in vivo, Zea mays; conditions: application rate 320 g/ha, crop plant ZEAMX
Source text: as §4

TRZAS [29] = assay: Post-emergence effects on crop plants (Table F2); type: in vivo, Triticum aestivum; conditions: application rate 320 g/ha, crop plant TRZAS
Source text: as §4

ORYZA = assay: Post-emergence effects on crop plants (Table F3); type: in vivo, Oryza sativa; conditions: application rate 320 g/ha, crop plant ORYZA
Source text: as §4

BRSNW [30] = assay: Post-emergence effects on crop plants (Table F5); type: in vivo, Brassica napus; conditions: application rate 320 g/ha, crop plant BRSNW
Source text: as §4

Structure (SMILES): N#Cc1ccc(CN2CCCC3(CCCN(Cc4ccc(C#N)s4)C3=O)C2=O)s1 (single isomer, unassigned; (-)) [I-208, (-)-2,8-bis[(5-cyanothiophen-2-yl)methyl]-2,8-diazaspiro[5.5]undecane-1,7-dione]
pest or weed control at 1280 g/ha (LOLRI [1]; Lolium rigidum, pre-emergence, 504 h, application rate 1280 g/ha, read-out: pre-emergence activity against LOLRI): 90% | pre-emergence activity against SETVI (SETVI [2]; application rate 1280 g/ha): 90% | pre-emergence activity against STEME (STEME [3]; application rate 1280 g/ha): 100% | pest or weed control at 1280 g/ha (POAAN [4]; Poa annua, pre-emergence, 504 h, application rate 1280 g/ha, read-out: pre-emergence activity against POAAN): 100% | pre-emergence activity against AMARE (AMARE [5]): 100% | pre-emergence activity against KCHSC (KCHSC): 90% | post-emergence activity against ABUTH (ABUTH): 90% | pest or weed control at 1280 g/ha (ECHCG [6]): 90% | post-emergence activity against POAAN (POAAN [7]; application rate 1280 g/ha): 90% | post-emergence activity against SETVI (SETVI [8]): 90% | post-emergence activity against STEME (STEME [9]): 90% | post-emergence activity against VERPE (VERPE [10]): 90% | post-emergence activity against AMARE (AMARE [11]): 90%

pre-emergence activity against ZEAMX (ZEAMX [21]): 10% | pre-emergence activity against TRZAS (TRZAS [22]): 20% | pre-emergence activity against GLXMA (GLXMA): 0% | pre-emergence activity against BRSNW (BRSNW [23]): 10%
Structure (SMILES): O=C1N(Cc2c(F)ccc(F)c2F)CCCC12CCCN(Cc1c(F)ccc(F)c1F)C2=O (racemic) [I-013]
pre-emergence activity against ECHCG (ECHCG [12]): 100% | pre-emergence activity against LOLRI (LOLRI [1]; application rate 320 g/ha): 100% | pre-emergence activity against MATIN (MATIN [13]): 90% | pre-emergence activity against SETVI (SETVI [2]; application rate 320 g/ha): 100% | pre-emergence activity against STEME (STEME [3]; application rate 320 g/ha): 100% | pre-emergence activity against POAAN (POAAN [4]; application rate 320 g/ha): 100% | pre-emergence activity against AMARE (AMARE [5]): 90% | post-emergence activity against ABUTH (ABUTH): 90% | post-emergence activity against MATIN (MATIN [14]): 90% | post-emergence activity against POAAN (POAAN [7]; application rate 320 g/ha): 90% | post-emergence activity against STEME (STEME [9]): 90% | post-emergence activity against AMARE (AMARE [11]): 90% | pre-emergence activity against ALOMY (ALOMY [15]): 80% | pre-emergence activity against DIGSA (DIGSA): 100% | pre-emergence activity against ECHCG (ECHCG [16]): 100% | pre-emergence activity against LOLRI (LOLRI [17]): 90% | pre-emergence activity against SETVI (SETVI [18]): 90% | pre-emergence activity against VERPE (VERPE [19]): 90% | pre-emergence activity against VIOTR (VIOTR [20]): 80% | post-emergence activity against ALOMY (ALOMY [24]): 80% | post-emergence activity against ECHCG (ECHCG [25]): 80% | post-emergence activity against VERPE (VERPE [26]): 80% | post-emergence activity against VIOTR (VIOTR [27]): 90% | post-emergence activity against ZEAMX (ZEAMX [28]): 10% | post-emergence activity against TRZAS (TRZAS [29]): 0% | post-emergence activity against ORYZA (ORYZA): 0% | post-emergence activity against BRSNW (BRSNW [30]): 0%
